Source: patent US6569881B1, “Substituted benzimidazole, the production thereof and the use thereof as means against parasitic protozoa” (Bayer Aktiengesellschaft, priority 1999, dated 2003)

What was measured:
Format in all cases: in vivo, chicken chicks
[1] = tested on: Eimeria acervulina; test: Cage experiments coccidiosis/chicks, Eimeria acervulina part of the mixed infection; conditions: for Efficacy against Eimeria acervulina (grade): first symbol of cell; on Efficacy against Eimeria acervulina (grade): key: 2 = complete action; 1 = weak action; 0 = inactive; D = death
Description: (§1) The efficacy of the compounds according to the invention can be confirmed, for example, in cage experiments using the following experimental arrangement, in which the animals are treated with the respective individual components and with the mixtures of the individual components.
(§2) An active compound-containing feed is prepared in such a way that the required amount of active compound is thoroughly mixed with a nutritionally balanced animal feed, e.g. with the chick feed indicated below.
(§3) 8 to 12 day-old male chicken chicks raised under coccidea-free conditions (e.g. LSL Brinkschulte/Senden) receive the compounds according to the invention (test substances) from 3 days before (day -3) the infection (=a.i.) until 8 (9) days after the infection (=p.i.) with the feed in the concentration indicated in ppm. Three animals are kept in each cage. Per dose, one to a number of groups of this type are employed. Infection is carried out by means of a stomach tube directly into the crop using approximately 100,000 sporulated oocysts of Eimeria acervulina and with in each case approximately 30,000 oocysts of E. maxima and 40,000 sporulated oocysts of E. tenella. These are highly virulent strains. The exact infectious dose is adjusted such that if possible one of three experimentally infected untreated chicks dies due to infection. For the assessment of the efficacy, the following criteria are taken into consideration: weight increase from the start of the experiment to the end of the experiment, death rate due to infection, macroscopic assessment of the faeces with respect to diarrhoea and excretion of blood on days 5 and 7 p.i. (grade 0 to 6), macroscopic grade of the intestinal mucous membrane, in particular of the cecums (grade 0 to 6) and the oocyst excretion and also the proportion (in %) of the oocysts sporulating within 24 hours. The number of oocysts in the faeces was determined with the aid of the McMaster counting chamber (see Engelbrecht and coworkers “Parasitologische Arbeitsmethoden in Medizin und Veterinärmedizin, [Parasitological working methods in medicine and veterinary medicine] Akademie-Verlag, Berlin (1965)). The individual findings are related to the untreated noninfected control groups and an overall grade is calculated (cf. A. Haberkorn (1986), pp. 263 to 270 in Research in Avian Coccidiosis ed L. R. McDougald, L. P. Joyner, P. L. Long Proceedings of the Georgia Coccidiosis Conference Nov, 18-20, 1985 Athens/Ga. USA).
(§4) In the columns “dropping scores”, “lesion score” and “oocyst control”, individual details of the action are given.

[2] = tested on: Eimeria acervulina, Eimeria maxima and Eimeria tenella; test: Cage experiments coccidiosis/chicks, mixed experimental infection
Description: as §1, §2, §3
In the column “ppm”, the concentration of the active compound employed in the feed is indicated in ppm.
In the column “mortality”, the percentage of the animals which have died is indicated under % and the number of the animals which have died/animals employed in the experiment is indicated under n.
In the column “weight % of not inf. control”, the ratio of the weight of the treated animals to the weight of the noninfected control group is indicated.
as §4
In the column “% efficacy”, the overall rating is assessed; 0% means no action, 100% means complete action.

[3] = tested on: Eimeria tenella; test: Cage experiments coccidiosis/chicks, Eimeria tenella part of the mixed infection; conditions: for Efficacy against Eimeria tenella (grade): third symbol of cell; on Efficacy against Eimeria tenella (grade): key: 2 = complete action; 1 = weak action; 0 = inactive; D = death
Description: as §1, §2, §3, §4

[4] = tested on: Eimeria maxima; test: Cage experiments coccidiosis/chicks, Eimeria maxima part of the mixed infection; conditions: for Efficacy against Eimeria maxima (grade): second symbol of cell; on Efficacy against Eimeria maxima (grade): key: 2 = complete action; 1 = weak action; 0 = inactive; D = death
Description: as §1, §2, §3, §4

[5] = 5 ppm in feed, listed as Ex. 15
[6] = 10 ppm in feed, listed as Ex. 15

Cc1oc(=O)oc1Cn1c(C(F)(F)F)nc2c(Br)cc3c(c21)OC(F)(F)C(F)(F)O3 [Example 14]
oocyst in % of inf. control ac. ([1]; 2.5 ppm in feed): 92%
oocyst in % of inf. control ac. ([1]; 5 ppm): 80 % of inf. control
oocyst in % of inf. control ac. ([1]; 5 ppm in feed): 3%
oocyst in % of inf. control ac. ([1]; 7.5 ppm): 16 % of inf. control
oocyst in % of inf. control ac. ([1]; 10 ppm): 2 % of inf. control
oocyst in % of inf. control ac. ([1]; 10 ppm in feed): 1%
Efficacy against Eimeria acervulina (grade) ([1]; Dose 5 ppm): 2
Efficacy against Eimeria acervulina (grade) ([1]; Dose 10 ppm): 2
% efficacy tot. ([2]; 2.5 ppm in feed): 30%
mortality % ([2]; 2.5 ppm in feed): 0%
mortality n (died/employed) ([2]; 2.5 ppm in feed): 0/3
oocyst in % of inf. control tot. ([2]; 2.5 ppm in feed): 35%
weight % of not inf. control ([2]; 2.5 ppm in feed): 44%
dropping scores ([2]; 2.5 ppm in feed, grade 0 to 6): 6
lesion score ([2]; 2.5 ppm in feed, grade 0 to 6): 6
% efficay tot. ([2]; 5 ppm): 0%
dropping scores ([2]; 5 ppm): 6
lesion score ([2]; 5 ppm): 6
mortality % ([2]; 5 ppm): 33%
mortality n ([2]; 5 ppm): 1/3
oocyst in % of inf. control tot. ([2]; 5 ppm): 67 % of inf. control
weight % of not inf. control ([2]; 5 ppm): 29 % of not inf. control
% efficacy tot. ([2]; 5 ppm in feed): 66%
mortality % ([2]; 5 ppm in feed): 33%
mortality n (died/employed) ([2]; 5 ppm in feed): 1/3
oocyst in % of inf. control tot. ([2]; 5 ppm in feed): 2%
weight % of not inf. control ([2]; 5 ppm in feed): 90.6%
dropping scores ([2]; 5 ppm in feed, grade 0 to 6): 6
lesion score ([2]; 5 ppm in feed, grade 0 to 6): 5.5
% efficay tot. ([2]; 7.5 ppm): 45%
dropping scores ([2]; 7.5 ppm): 6
lesion score ([2]; 7.5 ppm): 6
mortality % ([2]; 7.5 ppm): 0%
mortality n ([2]; 7.5 ppm): 0/3
oocyst in % of inf. control tot. ([2]; 7.5 ppm): 15 % of inf. control
weight % of not inf. control ([2]; 7.5 ppm): 61 % of not inf. control
% efficay tot. ([2]; 10 ppm): 45%
dropping scores ([2]; 10 ppm): 3
lesion score ([2]; 10 ppm): 6
mortality % ([2]; 10 ppm): 0%
mortality n ([2]; 10 ppm): 0/3
oocyst in % of inf. control tot. ([2]; 10 ppm): 16 % of inf. control
weight % of not inf. control ([2]; 10 ppm): 79 % of not inf. control
% efficacy tot. ([2]; 10 ppm in feed): 69%
mortality % ([2]; 10 ppm in feed): 0%
mortality n (died/employed) ([2]; 10 ppm in feed): 0/3
oocyst in % of inf. control tot. ([2]; 10 ppm in feed): 4%
weight % of not inf. control ([2]; 10 ppm in feed): 81%
dropping scores ([2]; 10 ppm in feed, grade 0 to 6): 4
lesion score ([2]; 10 ppm in feed, grade 0 to 6): 6
oocyst in % of inf. control ten. ([3]; 2.5 ppm in feed): 12%
oocyst in % of inf. control ten. ([3]; 5 ppm): 44 % of inf. control
oocyst in % of inf. control ten. ([3]; 5 ppm in feed): 1%
oocyst in % of inf. control ten. ([3]; 7.5 ppm): 15 % of inf. control
oocyst in % of inf. control ten. ([3]; 10 ppm): 26 % of inf. control
oocyst in % of inf. control ten. ([3]; 10 ppm in feed): 7%
Efficacy against Eimeria tenella (grade) ([3]; Dose 5 ppm): 1
Efficacy against Eimeria tenella (grade) ([3]; Dose 10 ppm): 1
oocyst in % of inf. control max. ([4]; 2.5 ppm in feed): 0%
oocyst in % of inf. control max. ([4]; 5 ppm): 57 % of inf. control
oocyst in % of inf. control max. ([4]; 5 ppm in feed): 6%
oocyst in % of inf. control max. ([4]; 7.5 ppm): 1 % of inf. control
oocyst in % of inf. control max. ([4]; 10 ppm): >100 % of inf. control
oocyst in % of inf. control max. ([4]; 10 ppm in feed): 0%
Efficacy against Eimeria maxima (grade) ([4]; Dose 5 ppm): 2
Efficacy against Eimeria maxima (grade) ([4]; Dose 10 ppm): 2

Cc1oc(=O)oc1Cn1c(C(F)(F)F)nc2c(Cl)cc3c(c21)OC(F)(F)C(F)(F)O3 [Example 15]
oocyst in % of inf. control ac. ([1]; 2.5 ppm in feed): 48%
oocyst in % of inf. control ac. ([1]; 5 ppm in feed): 2%
oocyst in % of inf. control ac. [1, 5]: 49%
oocyst in % of inf. control ac. ([1]; 7.5 ppm in feed): 16%
oocyst in % of inf. control ac. ([1]; 10 ppm in feed): 0%
oocyst in % of inf. control ac. [1, 6]: 2%
Efficacy against Eimeria acervulina (grade) ([1]; Dose 5 ppm): 1
Efficacy against Eimeria acervulina (grade) ([1]; Dose 10 ppm): 2
Efficacy against Eimeria acervulina (grade) ([1]; Dose 25 ppm): 2
% efficacy tot. ([2]; 2.5 ppm in feed): 43%
mortality % ([2]; 2.5 ppm in feed): 0%
mortality n (died/employed) ([2]; 2.5 ppm in feed): 0/3
oocyst in % of inf. control tot. ([2]; 2.5 ppm in feed): 48%
weight % of not inf. control ([2]; 2.5 ppm in feed): 80%
dropping scores ([2]; 2.5 ppm in feed, grade 0 to 6): 1
lesion score ([2]; 2.5 ppm in feed, grade 0 to 6): 6
% efficacy tot. ([2]; 5 ppm in feed): 75%
mortality % ([2]; 5 ppm in feed): 0%
mortality n (died/employed) ([2]; 5 ppm in feed): 0/3
oocyst in % of inf. control tot. ([2]; 5 ppm in feed): 1%
weight % of not inf. control ([2]; 5 ppm in feed): 85%
dropping scores ([2]; 5 ppm in feed, grade 0 to 6): 6
lesion score ([2]; 5 ppm in feed, grade 0 to 6): 1
lesion score ([2]; 5 ppm in feed, grade 0 to 6, listed as Ex. 15): 6
% efficacy tot. [2, 5]: 23%
oocyst in % of inf. control tot. [2, 5]: 31%
weight % of not inf. control [2, 5]: 75%
% efficacy tot. ([2]; 7.5 ppm in feed): 60%
mortality % ([2]; 7.5 ppm in feed): 0%
mortality n (died/employed) ([2]; 7.5 ppm in feed): 0/3
oocyst in % of inf. control tot. ([2]; 7.5 ppm in feed): 13%
weight % of not inf. control ([2]; 7.5 ppm in feed): >100%
dropping scores ([2]; 7.5 ppm in feed, grade 0 to 6): 6
lesion score ([2]; 7.5 ppm in feed, grade 0 to 6): 2
% efficacy tot. ([2]; 10 ppm in feed): 91%
mortality % ([2]; 10 ppm in feed): 0%
mortality n (died/employed) ([2]; 10 ppm in feed): 0/3
oocyst in % of inf. control tot. ([2]; 10 ppm in feed): 0%
weight % of not inf. control ([2]; 10 ppm in feed): 82%
dropping scores ([2]; 10 ppm in feed, grade 0 to 6): 0
lesion score ([2]; 10 ppm in feed, grade 0 to 6): 0
lesion score ([2]; 10 ppm in feed, grade 0 to 6, listed as Ex. 15): 1
% efficacy tot. [2, 6]: 89%
oocyst in % of inf. control tot. [2, 6]: 1%
weight % of not inf. control [2, 6]: 92%
mortality % ([2]; 25 ppm in feed): 100%
mortality n (died/employed) ([2]; 25 ppm in feed): 3/3
dropping scores ([2]; 25 ppm in feed, grade 0 to 6): 0
oocyst in % of inf. control ten. ([3]; 2.5 ppm in feed): 48%
oocyst in % of inf. control ten. ([3]; 5 ppm in feed): 0%
oocyst in % of inf. control ten. [3, 5]: 23%
oocyst in % of inf. control ten. ([3]; 7.5 ppm in feed): 12%
oocyst in % of inf. control ten. ([3]; 10 ppm in feed): 0%
oocyst in % of inf. control ten. [3, 6]: 1%
Efficacy against Eimeria tenella (grade) ([3]; Dose 5 ppm): 1
Efficacy against Eimeria tenella (grade) ([3]; Dose 10 ppm): 2
Efficacy against Eimeria tenella (grade) ([3]; Dose 25 ppm): 1
oocyst in % of inf. control max. ([4]; 2.5 ppm in feed): 0%
oocyst in % of inf. control max. ([4]; 5 ppm in feed): 2%
oocyst in % of inf. control max. [4, 5]: 0%
oocyst in % of inf. control max. ([4]; 7.5 ppm in feed): 0%
oocyst in % of inf. control max. ([4]; 10 ppm in feed): 0%
Efficacy against Eimeria maxima (grade) ([4]; Dose 5 ppm): 0
Efficacy against Eimeria maxima (grade) ([4]; Dose 10 ppm): 1
Efficacy against Eimeria maxima (grade) ([4]; Dose 25 ppm): 2
